Measured values reported in the NIST ThermoML archive (doi:10.1021/je8008864).
Numbers after ± are expanded uncertainties.

Assay: mn = molality of the nth substance listed, in mol/kg
Conditions: 101 kPa, Liquid; for viscosity: Rotational; for mass density: Vibrating tube method

## CNCCC=C1c2ccccc2CCc2ccccc21.Cl + O
293.15 K, m1 = 0.0075
  viscosity: 1.035 ± 0.006 mPa·s
  mass density: 998.486 ± 0.11 kg/m3
293.15 K, m1 = 0.01
  viscosity: 1.035 ± 0.006 mPa·s
  mass density: 998.545 ± 0.11 kg/m3
293.15 K, m1 = 0.0125
  viscosity: 1.036 ± 0.006 mPa·s
  mass density: 998.599 ± 0.11 kg/m3
293.15 K, m1 = 0.0152
  viscosity: 1.036 ± 0.006 mPa·s
  mass density: 998.645 ± 0.11 kg/m3
293.15 K, m1 = 0.0175
  viscosity: 1.037 ± 0.006 mPa·s
  mass density: 998.668 ± 0.1 kg/m3
293.15 K, m1 = 0.02
  viscosity: 1.037 ± 0.006 mPa·s
  mass density: 998.705 ± 0.1 kg/m3
293.15 K, m1 = 0.025
  viscosity: 1.038 ± 0.006 mPa·s
  mass density: 998.721 ± 0.1 kg/m3
298.15 K, m1 = 0.0076
  viscosity: 0.9368 ± 0.006 mPa·s
  mass density: 997.322 ± 0.12 kg/m3
298.15 K, m1 = 0.01
  viscosity: 0.937 ± 0.006 mPa·s
  mass density: 997.382 ± 0.11 kg/m3
298.15 K, m1 = 0.0125
  viscosity: 0.9374 ± 0.006 mPa·s
  mass density: 997.428 ± 0.11 kg/m3
298.15 K, m1 = 0.0152
  viscosity: 0.9376 ± 0.006 mPa·s
  mass density: 997.469 ± 0.11 kg/m3
298.15 K, m1 = 0.0175
  viscosity: 0.9379 ± 0.006 mPa·s
  mass density: 997.499 ± 0.11 kg/m3
298.15 K, m1 = 0.02
  viscosity: 0.9382 ± 0.006 mPa·s
  mass density: 997.521 ± 0.1 kg/m3
298.15 K, m1 = 0.025
  viscosity: 0.9388 ± 0.006 mPa·s
  mass density: 997.545 ± 0.11 kg/m3
303.15 K, m1 = 0.0076
  viscosity: 0.8338 ± 0.006 mPa·s
  mass density: 995.904 ± 0.12 kg/m3
303.15 K, m1 = 0.01
  viscosity: 0.8339 ± 0.006 mPa·s
  mass density: 995.959 ± 0.11 kg/m3
303.15 K, m1 = 0.0125
  viscosity: 0.8342 ± 0.006 mPa·s
  mass density: 996.001 ± 0.11 kg/m3
303.15 K, m1 = 0.0152
  viscosity: 0.8345 ± 0.006 mPa·s
  mass density: 996.045 ± 0.11 kg/m3
303.15 K, m1 = 0.0175
  viscosity: 0.8348 ± 0.006 mPa·s
  mass density: 996.065 ± 0.1 kg/m3
303.15 K, m1 = 0.02
  viscosity: 0.8349 ± 0.006 mPa·s
  mass density: 996.085 ± 0.1 kg/m3
303.15 K, m1 = 0.025
  viscosity: 0.8356 ± 0.006 mPa·s
  mass density: 996.105 ± 0.1 kg/m3
308.15 K, m1 = 0.0076
  viscosity: 0.7279 ± 0.006 mPa·s
  mass density: 994.285 ± 0.11 kg/m3
308.15 K, m1 = 0.01
  viscosity: 0.7281 ± 0.006 mPa·s
  mass density: 994.335 ± 0.11 kg/m3
308.15 K, m1 = 0.0125
  viscosity: 0.7283 ± 0.006 mPa·s
  mass density: 994.379 ± 0.11 kg/m3
308.15 K, m1 = 0.0152
  viscosity: 0.7285 ± 0.006 mPa·s
  mass density: 994.409 ± 0.11 kg/m3
308.15 K, m1 = 0.0175
  viscosity: 0.7286 ± 0.006 mPa·s
  mass density: 994.435 ± 0.11 kg/m3
308.15 K, m1 = 0.02
  viscosity: 0.7289 ± 0.006 mPa·s
  mass density: 994.455 ± 0.1 kg/m3
308.15 K, m1 = 0.025
  viscosity: 0.7293 ± 0.006 mPa·s
  mass density: 994.465 ± 0.1 kg/m3
310.15 K, m1 = 0.0076
  viscosity: 0.6925 ± 0.006 mPa·s
  mass density: 993.565 ± 0.11 kg/m3
310.15 K, m1 = 0.01
  viscosity: 0.6928 ± 0.006 mPa·s
  mass density: 993.621 ± 0.11 kg/m3
310.15 K, m1 = 0.0125
  viscosity: 0.6929 ± 0.006 mPa·s
  mass density: 993.659 ± 0.11 kg/m3
310.15 K, m1 = 0.0152
  viscosity: 0.6931 ± 0.006 mPa·s
  mass density: 993.689 ± 0.11 kg/m3
310.15 K, m1 = 0.0175
  viscosity: 0.6932 ± 0.006 mPa·s
  mass density: 993.712 ± 0.11 kg/m3
310.15 K, m1 = 0.02
  viscosity: 0.6935 ± 0.006 mPa·s
  mass density: 993.73 ± 0.1 kg/m3
310.15 K, m1 = 0.025
  viscosity: 0.6938 ± 0.006 mPa·s
  mass density: 993.741 ± 0.1 kg/m3
313.15 K, m1 = 0.0076
  viscosity: 0.6556 ± 0.006 mPa·s
  mass density: 992.443 ± 0.11 kg/m3
313.15 K, m1 = 0.01
  viscosity: 0.6557 ± 0.006 mPa·s
  mass density: 992.499 ± 0.11 kg/m3
313.15 K, m1 = 0.0125
  viscosity: 0.6558 ± 0.006 mPa·s
  mass density: 992.539 ± 0.11 kg/m3
313.15 K, m1 = 0.0152
  viscosity: 0.656 ± 0.006 mPa·s
  mass density: 992.571 ± 0.11 kg/m3
313.15 K, m1 = 0.0175
  viscosity: 0.6562 ± 0.006 mPa·s
  mass density: 992.592 ± 0.11 kg/m3
313.15 K, m1 = 0.02
  viscosity: 0.6564 ± 0.006 mPa·s
  mass density: 992.601 ± 0.11 kg/m3
313.15 K, m1 = 0.025
  viscosity: 0.6568 ± 0.006 mPa·s
  mass density: 992.609 ± 0.11 kg/m3

## CC(CN(C)C)CN1c2ccccc2CCc2ccccc21.O=C(O)/C=C\C(=O)O (stereo not drawn) [trimipramine maleate] + O
293.15 K, m1 = 0.0075
  viscosity: 1.035 ± 0.006 mPa·s
  mass density: 998.499 ± 0.11 kg/m3
293.15 K, m1 = 0.01
  viscosity: 1.035 ± 0.006 mPa·s
  mass density: 998.566 ± 0.11 kg/m3
293.15 K, m1 = 0.0125
  viscosity: 1.036 ± 0.006 mPa·s
  mass density: 998.625 ± 0.11 kg/m3
293.15 K, m1 = 0.0152
  viscosity: 1.036 ± 0.006 mPa·s
  mass density: 998.675 ± 0.11 kg/m3
293.15 K, m1 = 0.0175
  viscosity: 1.037 ± 0.006 mPa·s
  mass density: 998.715 ± 0.11 kg/m3
293.15 K, m1 = 0.02
  viscosity: 1.038 ± 0.006 mPa·s
  mass density: 998.745 ± 0.1 kg/m3
293.15 K, m1 = 0.025
  viscosity: 1.04 ± 0.006 mPa·s
  mass density: 998.799 ± 0.1 kg/m3
298.15 K, m1 = 0.0076
  viscosity: 0.937 ± 0.006 mPa·s
  mass density: 997.329 ± 0.12 kg/m3
298.15 K, m1 = 0.01
  viscosity: 0.9373 ± 0.006 mPa·s
  mass density: 997.396 ± 0.11 kg/m3
298.15 K, m1 = 0.0125
  viscosity: 0.9376 ± 0.006 mPa·s
  mass density: 997.455 ± 0.11 kg/m3
298.15 K, m1 = 0.0152
  viscosity: 0.9379 ± 0.006 mPa·s
  mass density: 997.499 ± 0.11 kg/m3
298.15 K, m1 = 0.0175
  viscosity: 0.9382 ± 0.006 mPa·s
  mass density: 997.535 ± 0.11 kg/m3
298.15 K, m1 = 0.02
  viscosity: 0.9385 ± 0.006 mPa·s
  mass density: 997.569 ± 0.11 kg/m3
298.15 K, m1 = 0.025
  viscosity: 0.9393 ± 0.006 mPa·s
  mass density: 997.601 ± 0.1 kg/m3
303.15 K, m1 = 0.0076
  viscosity: 0.8339 ± 0.006 mPa·s
  mass density: 995.919 ± 0.12 kg/m3
303.15 K, m1 = 0.01
  viscosity: 0.8342 ± 0.006 mPa·s
  mass density: 995.981 ± 0.11 kg/m3
303.15 K, m1 = 0.0125
  viscosity: 0.8345 ± 0.006 mPa·s
  mass density: 996.031 ± 0.11 kg/m3
303.15 K, m1 = 0.0152
  viscosity: 0.8348 ± 0.006 mPa·s
  mass density: 996.081 ± 0.11 kg/m3
303.15 K, m1 = 0.0175
  viscosity: 0.835 ± 0.006 mPa·s
  mass density: 996.105 ± 0.11 kg/m3
303.15 K, m1 = 0.02
  viscosity: 0.8354 ± 0.006 mPa·s
  mass density: 996.141 ± 0.11 kg/m3
303.15 K, m1 = 0.025
  viscosity: 0.8361 ± 0.006 mPa·s
  mass density: 996.175 ± 0.1 kg/m3
308.15 K, m1 = 0.0076
  viscosity: 0.7339 ± 0.006 mPa·s
  mass density: 994.296 ± 0.11 kg/m3
308.15 K, m1 = 0.01
  viscosity: 0.7341 ± 0.006 mPa·s
  mass density: 994.355 ± 0.11 kg/m3
308.15 K, m1 = 0.0125
  viscosity: 0.7343 ± 0.006 mPa·s
  mass density: 994.401 ± 0.11 kg/m3
308.15 K, m1 = 0.0152
  viscosity: 0.7346 ± 0.006 mPa·s
  mass density: 994.455 ± 0.11 kg/m3
308.15 K, m1 = 0.0175
  viscosity: 0.7348 ± 0.006 mPa·s
  mass density: 994.475 ± 0.11 kg/m3
308.15 K, m1 = 0.02
  viscosity: 0.7351 ± 0.006 mPa·s
  mass density: 994.515 ± 0.11 kg/m3
308.15 K, m1 = 0.025
  viscosity: 0.7355 ± 0.006 mPa·s
  mass density: 994.535 ± 0.1 kg/m3
310.15 K, m1 = 0.0076
  viscosity: 0.6928 ± 0.006 mPa·s
  mass density: 993.58 ± 0.11 kg/m3
310.15 K, m1 = 0.01
  viscosity: 0.693 ± 0.006 mPa·s
  mass density: 993.638 ± 0.11 kg/m3
310.15 K, m1 = 0.0125
  viscosity: 0.6932 ± 0.006 mPa·s
  mass density: 993.681 ± 0.11 kg/m3
310.15 K, m1 = 0.0152
  viscosity: 0.6934 ± 0.006 mPa·s
  mass density: 993.721 ± 0.11 kg/m3
310.15 K, m1 = 0.0175
  viscosity: 0.6937 ± 0.006 mPa·s
  mass density: 993.749 ± 0.11 kg/m3
310.15 K, m1 = 0.02
  viscosity: 0.6939 ± 0.006 mPa·s
  mass density: 993.769 ± 0.11 kg/m3
310.15 K, m1 = 0.025
  viscosity: 0.6943 ± 0.006 mPa·s
  mass density: 993.799 ± 0.1 kg/m3
313.15 K, m1 = 0.0076
  viscosity: 0.6561 ± 0.006 mPa·s
  mass density: 992.458 ± 0.11 kg/m3
313.15 K, m1 = 0.01
  viscosity: 0.6564 ± 0.006 mPa·s
  mass density: 992.506 ± 0.11 kg/m3
313.15 K, m1 = 0.0125
  viscosity: 0.6566 ± 0.006 mPa·s
  mass density: 992.551 ± 0.11 kg/m3
313.15 K, m1 = 0.0152
  viscosity: 0.6568 ± 0.006 mPa·s
  mass density: 992.589 ± 0.11 kg/m3
313.15 K, m1 = 0.0175
  viscosity: 0.6571 ± 0.006 mPa·s
  mass density: 992.609 ± 0.11 kg/m3
313.15 K, m1 = 0.02
  viscosity: 0.6573 ± 0.006 mPa·s
  mass density: 992.615 ± 0.11 kg/m3
313.15 K, m1 = 0.025
  viscosity: 0.6579 ± 0.006 mPa·s
  mass density: 992.635 ± 0.11 kg/m3
